Reference: patent publication US6395739B1, “N-phenyl-N′-phenylpopylpiperazine derivatives and process for the preparation” (Zeria Pharmaceutical Co., Ltd., priority 1998, dated 2002)
Structures can show the parent of a compound that is named as a salt.

Legend:
α1-adrenoceptor [1] = experiment: α1-adrenoceptor blocking activity, phenylephrine-induced contraction of rabbit prostate smooth muscle strips; parameters: species or system Rabbits; details: rabbit prostate strip; vs phenylephrine concentration-response curve; test drug 10^-7-10^-5 M for 30 minutes; 10^-5 M propranolol present
Description: (§1) <α1-Adrenoceptor Blocking Activity>
(§2) Rabbits were exsanguinated to death, and the prostatic urethra and the prostate were removed and smooth muscle strips were prepared. Each strip was suspended in a 37° C. Krebs-solution-containing organ bath which had been bubbled with 95% O2 and 5% CO2. Isometric contraction under a resting tension of 1 g was recorded by an isometric transducer (by Nihon Koden: TB-651T) on a pen-type recorder (product of Nihon Denki San'ei: RECTI HORIZ 8K).
(§3) After the strips had been equilibrated for 60 minutes, contractions were elicited by use of a certain concentration of phenylephrine (10^−5 M). Subsequently, the organ bath was washed with a physiological solution, and the above procedure was repeated at 60-minute intervals of resting time until constant constriction responses of the strips were obtained. Next, phenylephrine was added cumulatively to organ bath(10^−7-3×10^−4 M), to thereby obtain concentration-response curves (control). After the resting period of 60 minutes following washing of the strip, test samples (DMSO solutions containing the test drug; 10^−7-10^−5 M) were treated for 30 minutes, and concentration-response curves of phenylephrine were obtained.
(§4) The composition of the physiological solution was as follows: NaCl 118.4 mM, KCl 4.7 mM, MgCl2 1.2 mM, CaCl2 2.5 mM, NaHCO3 25.0 mM, glucose […], and KH2PO4 1.2 mM.
(§5) In all cases, 10^−5 M propranolol (β-adrenoceptor antagonist) was added to the physiological solution 10 minutes before test sample was treated with strip.
(§6) The potency of each test drug with regard to the α1-adrenoceptor blocking activity was evaluated on the basis of calculation of pA2 (inverse of the logarithm of the concentration by mole of the antagonist which, in the presence of the antagonist, requires twice the concentration of the agonist for providing the same effect as required in the absence of the antagonist).

α1-adrenoceptor [2] = experiment: α1-adrenoceptor blocking activity, phenylephrine-induced contraction of rabbit prostatic urethra smooth muscle strips; parameters: species or system Rabbits; details: rabbit prostatic urethra strip; vs phenylephrine concentration-response curve; test drug 10^-7-10^-5 M for 30 minutes; 10^-5 M propranolol present
Description: as §1, §2, §3, §4, §5, §6

Structure (SMILES) | pA2 prostate (α1-adrenoceptor [1]) | pA2 Urethra (α1-adrenoceptor [2])
COc1ccccc1N1CCN(CC[C@H](Oc2ccc(C#N)cc2)c2ccc(C)cc2)CC1 [Example 1, (S)-4-[3-[4-(2-methoxyphenyl)piperazin-1-yl]-1-(4-methylphenyl)propoxy]benzonitrile dihydrochloride] | 8.00 | 8.44
COc1ccccc1N1CCN(CC[C@H](Oc2ccc(C(=O)O)cc2)c2ccc(C)cc2)CC1 [Example 2, (S)-4-[3-[4-(2-methoxyphenyl)piperazin-1-yl]-1-(4-methylphenyl)propoxy]benzoic acid] | 8.67 | 8.73
COc1ccccc1N1CCN(CC[C@H](Oc2ccc(C(=O)c3c[nH]c4ccccc34)cc2)c2ccc(C)cc2)CC1.Cl [Example 3, (S)-3-[4-[3-[4-(2-methoxyphenyl)piperazin-1-yl]-1-(4-methylphenyl)propoxy]benzoyl]indole hydrochloride] | 6.89 | 6.29
